Measured values: patent publication US20250170090A1, “METHOD FOR PREVENTING OR TREATING DISEASE OR DISORDER ASSOCIATED WITH ANTINEOPLASTIC AGENT” (ONQUALITY PHARMACEUTICALS CHINA LTD., priority 2022, published 2025)
Where two headings read alike, the source gives them in different places.

Key:
[1] = tested on: chemotherapy-induced hand-foot syndrome; experiment: Prevention of chemotherapy-induced hand-foot syndrome in rat models (Table 5); assay type: in vivo, SD rats
Description: Rat animal model was constructed. After several days, the rats develop hand-foot syndrome in their paws. After one week of acclimatization (about 200 g), the SD rats are divided into groups of 10 rats each, followed by gavage administration experiment. The chemotherapy drugs were dissolved, and each rat was given a gavage dose of 1 mL/100 g. After gavage, the rats were fixed with a fixed cylinder. NO-NSAID ointment was applied to the paws of the rats in the medication group, and blank ointment was applied to the paws of the rats in the blank group (as blank control). […] Table 5 lists the animal experimental combinations of chemotherapy drugs and NO-NSAID ointment, as well as the corresponding experimental results (where the value in the control rate column=the incidence rate of hand-foot syndrome in the blank group−the incidence rate of hand-foot syndrome in the treatment group).

[2] = tested on: HUVEC cells; experiment: CCK-8 cell viability: alleviation of proliferative toxicity of anti-tumor agents on HUVEC cells (Tables 7-1, 7-2); assay type: cell-based; conditions: for activation at 100 µM: Homo sapiens, 24 h, percentage increase in viable cells vs anti-tumor agent alone, read-out: Response rate % (average)
Description: The cultured HUVEC cells were digested the suspended, counted, and seed into a 96-well plate with 5,000-10,000 cells per well. The wells are divided into the following groups: blank control group, anti-tumor agent group, anti-tumor agent+NO-NSAID group, anti-tumor agent solvent group, NO-NSAID control group. Wherein each well of each group contained a basic medium, and the final liquid volume contained in each well was about 100 μL. The grouping situation was as follows: • 1) Blank control group: no solution was added except normally replacing the medium; • 2) Anti-tumor agent group: added the anti-tumor agent solution (the final concentration was shown in Table 7-1 and Table 7-2, the solvent of the anti-tumor agent solution was DMSO); • 3) Anti-tumor agent+NO-NSAID group: added the anti-tumor agent solution and the NO-NSAID solution (the final concentrations of anti-tumor agent and NO-NSAID were shown in Table 7-1 and Table 7-2, and according to the solubility of NO-NSAID, the solvent of NO-NSAID solution was selected as ethanol or sterile water, and minor volume differences in each group were adjusted by added the corresponding solvent); • 4) Anti-tumor agent solvent group: an equal volume of DMSO as contained in the corresponding anti-tumor agent solution in Group 2) was added; • 5) NO-NSAID control group: the same volume and type of solvent (for example, ethanol or sterile water) corresponding to the NO-NSAID contained in group 3) was added.
The anti-tumor agent solvent group was not involved in data processing and was only used as a reference for evaluating experimental system error. The NO-NSAID solvent control group was used for data correction to eliminate the influence of the solvent on the results.
After culturing for 24-48 hours, the Cell Counting Kit-8 (CCK-8) detection kit (C0037, Shanghai Beyotime Biotechnology Co., Ltd., Beyotime Biotechnology) was used to determine the cell viability. This allows for the calculation of the proliferative toxicity of anti-tumor agent on cell and the mitigating effect of NO-NSAID on proliferative toxicity. The results were statistically analyzed and plotted using GraphPad Prism 6.0 software and t test.

[3] = Afatinib (10 μM), NO-NSAID 100 μM
[4] = Cabozantinib (5 μM), NO-NSAID 100 μM
[5] = Dabrafenib (10 μM), NO-NSAID 100 μM
[6] = Everolimus (5 μM), NO-NSAID 100 μM
[7] = Infigratinib (15 μM), NO-NSAID 100 μM
[8] = Lapatinib (5 μM), NO-NSAID 100 μM
[9] = Lenvatinib (10 μM), NO-NSAID 100 μM
[10] = Olmutinib (10 μM), NO-NSAID 100 μM
[11] = Regorafenib (5 μM), NO-NSAID 100 μM
[12] = Selumetinib (5 μM), NO-NSAID 100 μM
[13] = Sorafenib (5 μM), NO-NSAID 100 μM
[14] = Sunitinib (5 μM), NO-NSAID 100 μM

CC(=O)Oc1ccccc1C(=O)Oc1cccc(CO[N+](=O)[O-])c1 [Compound A2]
Control rate ([1]; Acelarin 130 mg/kg twice a week, ointment 1% wt, Days 30): 28.57% | Control rate ([1]; Capecitabine 4000 mg/kg once a day, ointment 2% wt, Days 40): 22.22% | Control rate ([1]; Capecitabine 4000 mg/kg once a day, ointment 5% wt, Days 40): 28.57% | Control rate ([1]; Capecitabine 4000 mg/kg once a day, ointment 10% wt, Days 40): 33.33% | Control rate ([1]; Cytarabine 120 mg/kg twice a day, ointment 2% wt, Days 30): 14.29% | Control rate ([1]; Cytarabine 120 mg/kg twice a day, ointment 5% wt, Days 30): 42.86% | NO-NSAID response rate % (average) ([2]; Afatinib (10 μM), NO-NSAID 0.1 μM): 15% | NO-NSAID response rate % (average) ([2]; Afatinib (10 μM), NO-NSAID 1 μM): 17% | NO-NSAID response rate % (average) [2, 3]: 46% | NO-NSAID response rate % (average) ([2]; Afatinib (10 μM), NO-NSAID 500 μM): 38% | NO-NSAID response rate % (average) ([2]; Cabozantinib (5 μM), NO-NSAID 0.1 μM): 3% | NO-NSAID response rate % (average) ([2]; Cabozantinib (5 μM), NO-NSAID 1 μM): 4% | NO-NSAID response rate % (average) [2, 4]: 10% | NO-NSAID response rate % (average) ([2]; Cabozantinib (5 μM), NO-NSAID 500 μM): 12% | NO-NSAID response rate % (average) ([2]; Dabrafenib (10 μM), NO-NSAID 0.1 μM): 23% | NO-NSAID response rate % (average) ([2]; Dabrafenib (10 μM), NO-NSAID 1 μM): 36% | NO-NSAID response rate % (average) [2, 5]: 49% | NO-NSAID response rate % (average) ([2]; Dabrafenib (10 μM), NO-NSAID 500 μM): 30% | NO-NSAID response rate % (average) ([2]; Everolimus (5 μM), NO-NSAID 0.1 μM): −11% | NO-NSAID response rate % (average) ([2]; Everolimus (5 μM), NO-NSAID 1 μM): −6% | NO-NSAID response rate % (average) [2, 6]: 33% | NO-NSAID response rate % (average) ([2]; Everolimus (5 μM), NO-NSAID 500 μM): −9% | activation at 100 µM [2, 3]: 46% | activation at 100 µM ([2]; Anlotinib (5 μM), NO-NSAID 100 μM): 78% | activation at 100 µM ([2]; Apatinib (10 μM), NO-NSAID 100 μM): 56% | activation at 100 µM ([2]; Axitinib (10 μM), NO-NSAID 100 μM): 77% | activation at 100 µM [2, 4]: 10% | activation at 100 µM [2, 5]: 49% | activation at 100 µM ([2]; Dacomitinib (5 μM), NO-NSAID 100 μM): 12% | activation at 100 µM ([2]; Encorafenib (5 μM), NO-NSAID 100 μM): 76% | activation at 100 µM ([2]; Erdafitinib (10 μM), NO-NSAID 100 μM): 49% | activation at 100 µM [2, 6]: 33% | activation at 100 µM ([2]; Famitinib (5 μM), NO-NSAID 100 μM): 31% | activation at 100 µM ([2]; Fruquintinib (10 μM), NO-NSAID 100 μM): 41% | activation at 100 µM ([2]; Gefitinib (10 μM), NO-NSAID 100 μM): 76% | activation at 100 µM [2, 7]: 73% | activation at 100 µM [2, 8]: 16% | activation at 100 µM [2, 9]: 34% | activation at 100 µM [2, 10]: 33% | activation at 100 µM [2, 11]: 50% | activation at 100 µM [2, 12]: 83% | activation at 100 µM [2, 13]: 56% | activation at 100 µM [2, 14]: 65% | activation at 100 µM ([2]; Vemurafenib (5 μM), NO-NSAID 100 μM): 54% | NO-NSAID response rate % (average) ([2]; Infigratinib (15 μM), NO-NSAID 0.1 μM): 30% | NO-NSAID response rate % (average) ([2]; Infigratinib (15 μM), NO-NSAID 1 μM): 18% | NO-NSAID response rate % (average) [2, 7]: 73% | NO-NSAID response rate % (average) ([2]; Infigratinib (15 μM), NO-NSAID 500 μM): 17% | NO-NSAID response rate % (average) ([2]; Lapatinib (5 μM), NO-NSAID 0.1 μM): 14% | NO-NSAID response rate % (average) ([2]; Lapatinib (5 μM), NO-NSAID 1 μM): 32% | NO-NSAID response rate % (average) [2, 8]: 16% | NO-NSAID response rate % (average) ([2]; Lapatinib (5 μM), NO-NSAID 500 μM): 20% | NO-NSAID response rate % (average) ([2]; Lenvatinib (10 μM), NO-NSAID 0.1 μM): 25% | NO-NSAID response rate % (average) ([2]; Lenvatinib (10 μM), NO-NSAID 1 μM): 24% | NO-NSAID response rate % (average) [2, 9]: 34% | NO-NSAID response rate % (average) ([2]; Lenvatinib (10 μM), NO-NSAID 500 μM): 31% | NO-NSAID response rate % (average) ([2]; Olmutinib (10 μM), NO-NSAID 0.1 μM): 24% | NO-NSAID response rate % (average) ([2]; Olmutinib (10 μM), NO-NSAID 1 μM): 24% | NO-NSAID response rate % (average) [2, 10]: 33% | NO-NSAID response rate % (average) ([2]; Olmutinib (10 μM), NO-NSAID 500 μM): 23% | NO-NSAID response rate % (average) ([2]; Regorafenib (5 μM), NO-NSAID 0.1 μM): 32% | NO-NSAID response rate % (average) ([2]; Regorafenib (5 μM), NO-NSAID 1 μM): 30% | NO-NSAID response rate % (average) [2, 11]: 50% | NO-NSAID response rate % (average) ([2]; Regorafenib (5 μM), NO-NSAID 500 μM): 36% | NO-NSAID response rate % (average) ([2]; Selumetinib (5 μM), NO-NSAID 0.1 μM): 34% | NO-NSAID response rate % (average) ([2]; Selumetinib (5 μM), NO-NSAID 1 μM): 48% | NO-NSAID response rate % (average) [2, 12]: 83% | NO-NSAID response rate % (average) ([2]; Selumetinib (5 μM), NO-NSAID 500 μM): 30% | NO-NSAID response rate % (average) ([2]; Sorafenib (5 μM), NO-NSAID 0.1 μM): 5% | NO-NSAID response rate % (average) ([2]; Sorafenib (5 μM), NO-NSAID 1 μM): 20% | NO-NSAID response rate % (average) [2, 13]: 56% | NO-NSAID response rate % (average) ([2]; Sorafenib (5 μM), NO-NSAID 500 μM): 17% | NO-NSAID response rate % (average) ([2]; Sunitinib (5 μM), NO-NSAID 0.1 μM): 13% | NO-NSAID response rate % (average) ([2]; Sunitinib (5 μM), NO-NSAID 1 μM): 7% | NO-NSAID response rate % (average) [2, 14]: 65% | NO-NSAID response rate % (average) ([2]; Sunitinib (5 μM), NO-NSAID 500 μM): 2%
